Experiments:
[1] = biological target: T1, recombinant human transglutaminase 2 (Homo sapiens, UniProt P21980); assay: Transglutaminase assay: incorporation of dansylcadaverine into dimethylcasein (DCC-assay); assay type: biochemical; settings: recombinant human TG2 10 nM, dansylcadaverine/dimethylcasein; read-out: IC50 TG2
T1 sequence (P21980 1-687): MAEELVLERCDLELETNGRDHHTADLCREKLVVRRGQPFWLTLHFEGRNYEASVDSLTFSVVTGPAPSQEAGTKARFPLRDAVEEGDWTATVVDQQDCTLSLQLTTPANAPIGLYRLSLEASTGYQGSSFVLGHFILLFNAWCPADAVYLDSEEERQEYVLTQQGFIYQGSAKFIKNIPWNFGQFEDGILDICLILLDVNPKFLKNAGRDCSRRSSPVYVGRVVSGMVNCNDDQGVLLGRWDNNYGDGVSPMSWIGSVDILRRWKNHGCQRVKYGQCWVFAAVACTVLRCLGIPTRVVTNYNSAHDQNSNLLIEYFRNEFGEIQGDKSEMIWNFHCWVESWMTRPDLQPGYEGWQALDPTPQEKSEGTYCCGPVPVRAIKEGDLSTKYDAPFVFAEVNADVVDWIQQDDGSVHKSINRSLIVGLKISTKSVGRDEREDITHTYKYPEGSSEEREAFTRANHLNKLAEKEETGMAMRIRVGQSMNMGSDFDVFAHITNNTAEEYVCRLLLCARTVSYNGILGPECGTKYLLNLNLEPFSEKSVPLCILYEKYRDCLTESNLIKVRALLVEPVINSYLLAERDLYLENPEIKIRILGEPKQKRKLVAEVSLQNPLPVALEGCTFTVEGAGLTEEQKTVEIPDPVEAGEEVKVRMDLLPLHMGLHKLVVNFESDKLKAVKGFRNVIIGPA
In short: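 Recombinant human TG2 (10 nM final) incorporates dansylcadaverine (16.7 μM) into N,N-dimethylcasein (4 μM) in Tris-HCl buffer, pH 8.0, with 10 mM CaCl2 and 10 mM glutathione. Fluorescence (λex 330, λem 500 nm) followed 30 min. The slope between 20–30 min gives activity versus DMSO control, and IC50 comes from the concentration–activity plot.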

[2] = Log D by shake flask method (octanol / PBS pH 7.4, HPLC); assay type: physicochemical; settings: octanol / PBS pH 7.4, shake flask; read-out: logD
In short: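 Log D is derived by HPLC measurement of how the compound distributes between octanol and pH 7.4 phosphate-buffered saline in a shake flask.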

[3] = Caco-2 permeability assay (CacoReady kit); assay type: in vitro ADME; settings: human
In short: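 Compounds are tested on pre-formed Caco-2 barriers supplied as a ready-to-use kit, following the kit protocol, and the Papp value is derived to estimate intestinal absorption.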

Structure (SMILES) | IC50 [1] [µM] | logD [2] | Papp [3] [×10⁻⁶ cm/s]
CCNC(=O)C(=O)CC[C@H](NC(=O)c1cnnn1C)C(=O)Nc1cccn(CC(=O)NC2C3CC4CC(C3)CC2C4)c1=O (stereo partly drawn) [Compound I-56, (S)-N1-ethyl-N6-(1-(2-(2-adamantylamino)-2-oxoethyl)-2-oxo-1,2-dihydropyridin-3-yl)-5-(1-methyl-1H-1,2,3-triazole-5-carboxamido)-2-oxohexanediamide] | < 0.15 | < 1 | 1 to 10
CCNC(=O)C(=O)CC[C@H](NC(=O)c1nn[nH]n1)C(=O)Nc1cccn(CC(=O)NC2C3CC4CC(C3)CC2C4)c1=O (stereo partly drawn) [Compound I-57, (S)-N1-ethyl-N6-(1-(2-(2-adamantylamino)-2-oxoethyl)-2-oxo-1,2-dihydropyridin-3-yl)-2-oxo-5-(2H-tetrazole-5-carboxamido)hexanediamide] | 0.6 to 3.5 | < 1 | < 1
CCNC(=O)C(=O)CC[C@H](NC(=O)c1cnccn1)C(=O)Nc1cccn(CC(=O)NC2C3CC4CC2CC(O)(C4)C3)c1=O (stereo partly drawn) [Compound I-58, (S)-N1-ethyl-N6-(1-(2-(5-hydroxyadamantane-2-amino)-2-oxoethyl)-2-oxo-1,2-dihydropyridin-3-yl)-2-oxo-5-(pyrazine-2-carboxamido)hexanediamide] | 0.15 to 0.6 | < 1 | < 1
CCNC(=O)C(=O)CC[C@H](NC(=O)[C@H]1CCNC1)C(=O)Nc1cccn(CC(=O)NC2C3CC4CC2CC(F)(C4)C3)c1=O (stereo partly drawn) [Compound I-59, (S)-N1-ethyl-N6-(1-(2-(5-fluoroadamantane-2-amino)-2-oxoethyl)-2-oxo-1,2-dihydropyridin-3-yl)-2-oxo-5-((S)-pyrrolidine-3-carboxamido)hexanediamide] | 0.15 to 0.6 | < 1 | < 1
CCNC(=O)C(=O)CC[C@H](NC(=O)[C@@H]1CCCCN1)C(=O)Nc1cccn(CC(=O)NC2C3CC4CC2CC(Cl)(C4)C3)c1=O (stereo partly drawn) [Compound I-60, (S)-N1-ethyl-N6-(1-(2-(5-chloroadamantane-2-amino)-2-oxoethyl)-2-oxo-1,2-dihydropyridin-3-yl)-2-oxo-5-((S)-piperidine-2-carboxamido)hexanediamide] | 0.15 to 0.6 | 1 to 3 | < 1
CCNC(=O)C(=O)CC[C@H](NC(=O)[C@@H]1CCCNC1)C(=O)Nc1cccn(CC(=O)NC2C3CC4CC2CC(Br)(C4)C3)c1=O (stereo partly drawn) [Compound I-61, (S)-N1-ethyl-N6-(1-(2-(5-bromoadamantane-2-amino)-2-oxoethyl)-2-oxo-1,2-dihydropyridin-3-yl)-2-oxo-5-((R)-piperidine-3-carboxamido)hexanediamide] | 0.15 to 0.6 | 1 to 3 | < 1
CCNC(=O)C(=O)CC[C@H](NC(=O)[C@H]1COCCN1)C(=O)Nc1cccn(CC(=O)NC2C3CC4CC2CC(C)(C4)C3)c1=O (stereo partly drawn) [Compound I-62, (S)-N1-ethyl-N6-(1-(2-(5-methyladamantane-2-amino)-2-oxoethyl)-2-oxo-1,2-dihydropyridin-3-yl)-5-((R)-morpholine-3-carboxamido)-2-oxohexanediamide] | 0.15 to 0.6 | 1 to 3 | < 1
CCNC(=O)C(=O)CC[C@H](NC(=O)C1CN2CCC1CC2)C(=O)Nc1cccn(CC(=O)NC2(C#N)C3CC4CC(C3)CC2C4)c1=O (stereo partly drawn) [Compound I-63, (S)-N1-ethyl-N6-(1-(2-(2-carbonitrileadamantane-2-amino)-2-oxoethyl)-2-oxo-1,2-dihydropyridin-3-yl)-2-oxo-5-((3S,4R)-quinuclidine-3-carboxamido)hexanediamide] | 0.15 to 0.6 | < 1 | < 1
CCNC(=O)C(=O)CC[C@H](NC(=O)c1cc(C(=O)OC)cc([N+](=O)[O-])c1)C(=O)Nc1cccn(CC(=O)NC2(C(=O)OC)C3CC4CC(C3)CC2C4)c1=O (stereo partly drawn) [Compound I-64, (S)-methyl 3-(6-(ethylamino)-1-(1-(2-(methyl 2-aminoadamantane-2-carboxylate)-2-oxoethyl)-2-oxo-1,2-dihydropyridin-3-ylamino)-1,5,6-trioxohexan-2-ylcarbamoyl)-5-nitrobenzoate] | < 0.15 | 1 to 3 | 1 to 10
CCNC(=O)C(=O)CC[C@H](NC(=O)c1cncc([N+](=O)[O-])c1)C(=O)Nc1cccn(CC(=O)NCC23CC4CC(CC(C4)C2)C3)c1=O [Compound I-65, (S)-N1-(1-(2-(1-adamantylmethylamino)-2-oxoethyl)-2-oxo-1,2-dihydropyridin-3-yl)-N6-ethyl-2-(5-nitronicotinamido)-5-oxohexanediamide] | < 0.15 | 1 to 3 | 1 to 10
CCNC(=O)C(=O)CC[C@H](NC(=O)c1cncc(C(=O)O)c1)C(=O)Nc1cccn(CC(=O)NC(C)C23CC4CC(CC(C4)C2)C3)c1=O (stereo partly drawn) [Compound I-66] | 0.15 to 0.6 | 3 to 5 | < 1
CCNC(=O)C(=O)CC[C@H](NC(=O)c1c(C)nc2sccn12)C(=O)Nc1cccn(CC(=O)N(C)C2C3CC4CC(C3)CC2C4)c1=O (stereo partly drawn) [Compound I-67, (S)-N1-ethyl-N6-(1-(2-(2-adamantyl(methyl)amino)-2-oxoethyl)-2-oxo-1,2-dihydropyridin-3-yl)-5-(6-methylimidazo[2,1-b]thiazole-5-carboxamido)-2-oxohexanediamide] | 0.6 to 3.5 | 3 to 5 | < 1

Further lines, results first:

IC50 [1] [µM] | logD [2] | Papp [3] [×10⁻⁶ cm/s] | Structure (SMILES)
< 0.15 | 1 to 3 | 1 to 10 | CCNC(=O)C(=O)CC[C@H](NC(=O)c1oc2ccccc2c1C)C(=O)Nc1cccn(CC(=O)N[C@@H]2C[C@@H]3CC[C@H]2C3)c1=O [Compound I-68, (S)-N1-(1-(2-((1S,2R,4R)-bicyclo[2.2.1]heptan-2-ylamino)-2-oxoethyl)-2-oxo-1,2-dihydropyridin-3-yl)-N6-ethyl-2-(3-methylbenzofuran-2-carboxamido)-5-oxohexanediamide]
0.15 to 0.6 | 3 to 5 | 1 to 10 | CCNC(=O)C(=O)CC[C@H](NC(=O)c1oc2ccccc2c1C)C(=O)Nc1cccn(CC(=O)N[C@H]2C[C@H]3CC[C@]2(C)C3(C)C)c1=O [Compound I-69, (S)-N1-ethyl-5-(3-methylbenzofuran-2-carboxamido)-2-oxo-N6-(2-oxo-1-(2-oxo-2-((1R,2S,4R)-1,7,7-trimethylbicyclo[2.2.1]heptan-2-ylamino)ethyl)-1,2-dihydropyridin-3-yl)hexanediamide]
< 0.15 | 1 to 3 | 1 to 10 | CCNC(=O)C(=O)CC[C@H](NC(=O)c1oc2ccccc2c1C)C(=O)Nc1cccn(CC(=O)N[C@@H]2C[C@H]3CC[C@@H]2C3)c1=O [Compound I-70, (S)-N1-(1-(2-((1R,2R,4S)-bicyclo[2.2.1]heptan-2-ylamino)-2-oxoethyl)-2-oxo-1,2-dihydropyridin-3-yl)-N6-ethyl-2-(3-methylbenzofuran-2-carboxamido)-5-oxohexanediamide]
0.15 to 0.6 | < 1 | < 1 | CCNC(=O)C(=O)CC[C@H](NC(=O)c1ccncc1)C(=O)Nc1cccn(CC(=O)NC23CCC(CC2)C3)c1=O [Compound I-71, (S)-N1-(1-(2-((1s,4R)-bicyclo[2.2.1]heptan-1-ylamino)-2-oxoethyl)-2-oxo-1,2-dihydropyridin-3-yl)-N6-ethyl-2-(isonicotinamido)-5-oxohexanediamide]
0.15 to 0.6 | < 1 | < 1 | CCNC(=O)C(=O)CC[C@H](NC(=O)c1ccnnc1)C(=O)Nc1cccn(CC(=O)NC2C3CCC2CC3)c1=O (stereo partly drawn) [Compound I-72, (S)-N1-(1-(2-(bicyclo[2.2.1]heptan-7-ylamino)-2-oxoethyl)-2-oxo-1,2-dihydropyridin-3-yl)-N6-ethyl-5-oxo-2-(pyridazine-4-carboxamido)hexanediamide]
0.15 to 0.6 | < 1 | < 1 | CCNC(=O)C(=O)CC[C@H](NC(=O)c1cccnn1)C(=O)Nc1cccn(CC(=O)N[C@@H]2C[C@@H]3C=C[C@H]2C3)c1=O [Compound I-73, (S)-N1-(1-(2-((1R,2R,4R)-bicyclo[2.2.1]hept-5-en-2-ylamino)-2-oxoethyl)-2-oxo-1,2-dihydropyridin-3-yl)-N6-ethyl-5-oxo-2-(pyridazine-3-carboxamido)hexanediamide]
0.15 to 0.6 | < 1 | < 1 | CCNC(=O)C(=O)CC[C@H](NC(=O)c1cn[nH]n1)C(=O)Nc1cccn(CC(=O)NC2CC3CCC2CC3)c1=O (stereo partly drawn) [Compound I-74, (2S)-N1-(1-(2-(bicyclo[2.2.2]octan-2-ylamino)-2-oxoethyl)-2-oxo-1,2-dihydropyridin-3-yl)-N6-ethyl-5-oxo-2-(2H-1,2,3-triazole-4-carboxamido)hexanediamide]
